Assay results taken from ChEMBL document CHEMBL4411258, “Novel natural compounds from endophytic fungi with anticancer activity” (Eur J Med Chem, 2018).
Converted amounts (≈) assume the structure as drawn.

Key:
NCI-H460 = test: Cytotoxicity against human NCI-H460 cells after 48 hrs by sulforhodamine B assay; assay type: functional, cell-based; settings: Homo sapiens, NCI-H460, 48 h
HCT-116 [1] = test: Cytotoxicity against human HCT116 cells after 48 hrs by sulforhodamine B assay; assay type: functional, cell-based; settings: HCT-116, 48 h
MCF7 [2] = test: Cytotoxicity against human MCF7 cells after 48 hrs by sulforhodamine B assay; assay type: functional, cell-based; settings: Homo sapiens, MCF7, 48 h
MDA-MB-231 [3] = test: Cytotoxicity against human MDA-MB-231 cells after 72 hrs by MTT assay; assay type: functional, cell-based; settings: MDA-MB-231, 72 h
MCF7 [4] = test: Cytotoxicity against human MCF7 cells after 72 hrs by MTT assay; assay type: functional, cell-based; settings: MCF7, 72 h
Caco-2 = test: Cytotoxicity against human Caco2 cells after 72 hrs by MTT assay; assay type: functional, cell-based; settings: Caco-2, 72 h
HepG2 [5] = test: Cytotoxicity against human HepG2 cells by MTT assay; assay type: functional, cell-based
MDA-MB-231 [6] = test: Cytotoxicity against human MDA-MB-231 cells by MTT assay; assay type: functional, cell-based
HL-60 [7] = test: Cytotoxicity against human HL60 cells; assay type: functional, cell-based
MDA-MB-231 [8] = test: Cytotoxicity against human MDA-MB-231 cells by MTS assay; assay type: functional, cell-based
HepG2 [9] = test: Cytotoxicity against human HepG2 cells by MTS assay; assay type: functional, cell-based
THP-1 = test: Cytotoxicity against human THP1 cells by MTS assay; assay type: functional, cell-based
HCT-116 [10] = test: Cytotoxicity against human HCT116 cells by MTS assay; assay type: functional, cell-based
A549 [11] = test: Cytotoxicity against human A549 cells by MTS assay; assay type: functional, cell-based
MCF7 [12] = test: Cytotoxicity against human MCF7 cells by MTT assay; assay type: functional, cell-based
U2OS = test: Cytotoxicity against human U2OS cells by MTT assay; assay type: functional, cell-based
DNA topoisomerase I = DNA topoisomerase I (Bos taurus, UniProt F1MN93); test: Inhibition of calf thymus DNA topoisomerase 1 assessed as decrease in relaxation of supercoiled pBR322 DNA after 30 mins by Genview nucleic acid staining based agarose gel electrophoresis
Sequence of DNA topoisomerase I (F1MN93 whole entry): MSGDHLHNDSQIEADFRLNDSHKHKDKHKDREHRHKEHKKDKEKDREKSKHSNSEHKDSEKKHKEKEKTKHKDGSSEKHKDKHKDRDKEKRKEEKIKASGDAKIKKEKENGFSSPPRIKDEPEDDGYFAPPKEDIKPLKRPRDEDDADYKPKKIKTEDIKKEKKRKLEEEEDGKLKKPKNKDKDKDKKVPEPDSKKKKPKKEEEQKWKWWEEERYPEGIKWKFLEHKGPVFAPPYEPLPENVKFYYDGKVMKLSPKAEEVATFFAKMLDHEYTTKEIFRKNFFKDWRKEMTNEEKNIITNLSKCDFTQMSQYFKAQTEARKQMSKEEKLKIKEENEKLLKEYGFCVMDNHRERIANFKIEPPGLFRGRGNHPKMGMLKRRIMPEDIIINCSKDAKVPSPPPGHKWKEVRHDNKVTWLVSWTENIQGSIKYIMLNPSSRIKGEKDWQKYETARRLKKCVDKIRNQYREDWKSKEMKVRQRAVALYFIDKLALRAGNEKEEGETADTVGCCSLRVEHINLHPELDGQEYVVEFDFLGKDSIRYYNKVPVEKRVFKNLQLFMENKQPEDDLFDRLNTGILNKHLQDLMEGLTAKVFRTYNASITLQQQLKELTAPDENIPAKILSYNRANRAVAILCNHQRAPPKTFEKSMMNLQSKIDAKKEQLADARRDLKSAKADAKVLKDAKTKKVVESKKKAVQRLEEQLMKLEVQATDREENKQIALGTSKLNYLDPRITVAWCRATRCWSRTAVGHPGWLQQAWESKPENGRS

A2780 = test: Cytotoxicity against human cisplatin-sensitive A2780 cells by MTT assay; assay type: functional, cell-based
L5178Y = test: Cytotoxicity against mouse L5178Y cells by MTT assay; assay type: functional, cell-based
MCF7 [13] = test: Cytotoxicity against human MCF7 cells assessed as inhibition of cell growth at 40 uM by MTS assay; assay type: functional; settings: read-out: GI
SW480 [14] = test: Cytotoxicity against human SW480 cells assessed as inhibition of cell growth at 40 uM by MTS assay; assay type: functional; settings: read-out: GI
HL-60 [15] = test: Cytotoxicity against human HL60 cells assessed as inhibition of cell growth at 40 uM by MTS assay; assay type: functional; settings: read-out: GI
SMMC-7721 [16] = test: Cytotoxicity against human SMMC7721 cells assessed as inhibition of cell growth at 40 uM by MTS assay; assay type: functional; settings: read-out: GI
A549 [17] = test: Cytotoxicity against human A549 cells assessed as inhibition of cell growth at 40 uM by MTS assay; assay type: functional; settings: read-out: GI
A549 [18] = test: Cytotoxicity against human A549 cells after 48 hrs by MTT assay; assay type: functional, cell-based; settings: Homo sapiens, A549, 48 h; read-out: IC50
HepG2 [19] = test: Cytotoxicity against human HepG2 cells after 48 hrs by MTT assay; assay type: functional, cell-based; settings: HepG2, 48 h
HCT-116 [20] = test: Cytotoxicity against human HCT116 cells after 48 hrs by MTT assay; assay type: functional, cell-based; settings: HCT-116, 48 h
OVCAR-3 = test: Cytotoxicity against human OVCAR3 cells assessed as reduction in cell viability after 72 hrs by CyQuant dye-based assay; assay type: functional; settings: OVCAR-3, 72 h
MIA PaCa-2 = test: Cytotoxicity against human MIAPaCa2 cells after 48 hrs by MTT assay; assay type: functional, cell-based; settings: MIA PaCa-2, 48 h
A549 [21] = test: Cytotoxicity against human A549 cells; assay type: functional, cell-based
HCT-116 [22] = test: Cytotoxicity against human HCT116 cells; assay type: functional, cell-based
HeLa [23] = test: Cytotoxicity against human HeLa cells; assay type: functional, cell-based
GH3 = test: Cytotoxicity against rat GH3 cells by MTT assay; assay type: functional, cell-based
MMQ = test: Cytotoxicity against rat MMQ cells by MTT assay; assay type: functional, cell-based
HeLa [24] = test: Cytotoxicity against human HeLa cells after 48 hrs by MTS assay; assay type: functional, cell-based
T-24 = test: Cytotoxicity against human T24 cells after 48 hrs by MTS assay; assay type: functional, cell-based; settings: T-24, 48 h
A549 [25] = test: Cytotoxicity against human A549 cells after 48 hrs by MTS assay; assay type: functional, cell-based; settings: A549, 48 h
MCF7 [26] = test: Cytotoxicity against human MCF7 cells after 48 hrs by MTS assay; assay type: functional, cell-based; settings: MCF7, 48 h
A2780S = test: Cytotoxicity against human A2780S cells after 72 hrs by CyQuant dye-based assay; assay type: functional, cell-based
A2780cisR = test: Cytotoxicity against human A2780cisR cells after 72 hrs by CyQuant dye-based assay; assay type: functional, cell-based
SW480 [27] = test: Cytotoxicity against human SW480 cells after 48 hrs by MTT assay; assay type: functional, cell-based; settings: SW480, 48 h
HL-60 [28] = test: Cytotoxicity against human HL60 cells after 48 hrs by MTT assay; assay type: functional, cell-based; settings: HL-60, 48 h
SMMC-7721 [29] = test: Cytotoxicity against human SMMC7721 cells after 48 hrs by MTT assay; assay type: functional, cell-based; settings: Homo sapiens, SMMC-7721, 48 h; read-out: IC50
RPMI-8226 = test: Cytotoxicity against human RPMI8226 cells after 48 hrs by MTT assay; assay type: functional, cell-based; settings: RPMI-8226, 48 h

C/C=C/[C@@H]1OC(=O)C2=C[C@H](O)[C@@H](/C=C/C)O[C@H]21
IC50 (NCI-H460): 1 µM
IC50 (HCT-116 [1]): 6.2 µM
IC50 (MCF7 [2]): 22.5 µM

OCC(O)C(O)C(O)C(O)C(O)O[C@H]1[C@H](O)[C@@H](O)[C@H](O)O[C@@H]1CO (stereo partly specified)
EC50 (MDA-MB-231 [3]): 92.4 µM
EC50 (MCF7 [4]): 97.6 µM
EC50 (Caco-2): 99.4 µM

COc1ccc2c(c1)N(CC=C(C)C)C(=O)[C@@]21C=C2C(=O)N3CCC[C@H]3C(=O)N2[C@H]1C=C(C)C
IC50 (HepG2 [5]): 14.1 µM
IC50 (MDA-MB-231 [6]): 35.5 µM

COc1cc2c(c3c1Cc1c(cc(O)c(CO)c1C(=O)O)O3)C[C@H]1[C@H](C)CO[C@@]1(C)O2
IC50 (HL-60 [7]): 12.4 µM

CCOC(=O)c1c(O)cc(O)cc1CCCCCCCC(C)O (stereo unspecified)
IC50 (MDA-MB-231 [8]): 10.1 µM
IC50 (HepG2 [9]): 12.5 µM
IC50 (THP-1): 39.7 µM
IC50 (HCT-116 [10]): 11.9 µM
IC50 (A549 [11]): 13.3 µM

Cc1cc(O)c(C(=O)c2cc(O)cc(O)c2C=O)c(O)c1
IC50 (MCF7 [12]): 16.8 µM
IC50 (U2OS): 11.6 µM

Cc1cc(O)c2c(c1)[C@H](O)[C@H]1C=C[C@H](O)[C@@H](O)[C@@H]1C2=O
IC50 (DNA topoisomerase I): 23 µM

C=C1[C@@H](C)[C@H]2[C@H](Cc3ccc(O)cc3)NC(=O)[C@]23[C@H](O)/C=C/[C@@H](C)C[C@@H](C)C/C=C/[C@H]3[C@@H]1O
IC50 (A2780): 6.97 µM
IC50 (L5178Y): 2.55 µM

C=C1[C@@H](C)[C@H]2[C@H](Cc3c[nH]c4ccccc34)NC(=O)[C@@]2(C(=O)CCC(=O)OC)[C@@H](/C=C/CC(C)/C=C(\C)C=O)[C@@H]1O (stereo partly specified)
inhibition of growth at 40 µM (MCF7 [13]): 58%
inhibition of growth at 40 µM (SW480 [14]): 61%
inhibition of growth at 40 µM (HL-60 [15]): 96%
inhibition of growth at 40 µM (SMMC-7721 [16]): 51%
inhibition of growth at 40 µM (A549 [17]): 67%

COc1c(OC)c2c(c(OC)c1-c1c[nH]c3ccccc13)O[C@@H]1Nc3ccccc3[C@]21OC
IC50 (A549 [18]): 3.5 µg/mL
IC50 (HepG2 [19]): 2.5 µg/mL (≈ 5.62 µM)
IC50 (HCT-116 [20]): 6.4 µg/mL (≈ 14.4 µM)

CC1=CC[C@H]2C(C)(C)CCC[C@]2(C)[C@H]1C[C@@]12O[C@@H]1C(=O)C(CO)=C[C@H]2O
IC50 (OVCAR-3): 0.5 µM

CCCCC/C=C1/C(=O)OC(=O)[C@@H]1C
IC50 (MIA PaCa-2): 16 µM

COC(=O)CC[C@@H](C(=O)OC/C=C(\C)CC/C=C(\C)CCC=C(C)C)N1Cc2c(cc(O)c(OC/C=C(\C)CC/C=C(\C)CCC=C(C)C)c2O)C1=O
IC50 (A549 [21]): 12 µM
IC50 (HCT-116 [22]): 33 µM
IC50 (HeLa [23]): 4.77 µM

Cc1cc(O)cc2c1Oc1c(Cc3ccc(O)cc3)c(O)cc(C)c1C(=O)O2
IC50 (GH3): 3.64 µM
IC50 (MMQ): 3.09 µM

COC(=O)c1cc(OC)cc(O)c1C(=O)c1c(O)cc(C)c2c1O[C@@](C)(CC(=O)[C@@]13C[C@H](O)[C@@H]4O[C@]4(CC=C(C)C)[C@@H]1O3)C2
IC50 (HeLa [24]): 44.3 µM
IC50 (T-24): 39.3 µM
IC50 (A549 [25]): 35.3 µM
IC50 (MCF7 [26]): 38.3 µM

CCCCC/C=C/C1=C(CO)C(=O)[C@H]2O[C@@]2(C/C=C(\C)C(=O)O)C1=O
IC50 (A2780S): 3.3 µM
IC50 (A2780cisR): 5.1 µM

COC(=O)C1=C[C@@H](C)C[C@H]2CC[C@@H](O)[C@@]12O
IC50 (SW480 [27]): 3.6 to 16.2 µM
IC50 (HL-60 [28]): 3.6 to 16.2 µM
IC50 (A549 [18]): 3.6 to 16.2 µM
IC50 (MCF7 [26]): 3.6 to 16.2 µM
IC50 (SMMC-7721 [29]): 3.6 to 16.2 µM
IC50 (RPMI-8226): 3.6 to 16.2 µM
